Data on 1 compound can be found in patent US20250327032A1, “AGENT FOR AVOIDING IMMUNE RESPONSE OF TRANSGENIC CELLS” (HYPERION DRUG DISCOVERY CO., LTD., priority 2021, published 2025).

The structures appear in SMILES notation.

Holding throughout (format): cell-based
The subject of test [1] is human mesenchymal stem cells. Kind of test: Introduction of TERT mRNA by lipofection, number of viable cells. As to conditions: JSH-23 1 μM, 10 pg/cell. On the procedure: (§1) Human mesenchymal stem cells were seeded in a 6-well plate to be about 10,000 cells/cm^2. Human myoblasts were seeded in another 6-well plate to be about 20,000 cells/cm^2. As a culture solution, a basal medium for each cell supplemented with 1 μM of JSH-23 was used. As a control, a basal medium for each cell supplemented with 0.1% (v/v) DMSO instead of JSH-23 was used as a culture solution.
(§2) A lipofection solution was prepared by adding Lipofectamine RNAiMAX and TERT mRNA to OptiMEM. As the TERT mRNA, that containing uridine, or that containing pseudouridine instead of uridine was used. It was prepared so that the amount of mRNA was 10 pg/cell for human mesenchymal stem cells and 5 pg/cell for human myoblasts. The prepared lipofection solution was mixed well according to the manufacturer's recommended protocol and allowed to stand at room temperature for about 15 minutes.
(§3) Next, each lipofection solution was added to the plate seeded with human mesenchymal stem cells or human myoblasts, and cultured in a CO2 incubator at 37° C. for about 1 day (18 hours) (human mesenchymal stem cells) or for 2 days (42 hours) (human myoblasts). After culturing, all the culture solution comprising the lipofection solution was removed and replaced with a new culture solution having the same composition as before the addition of the lipofection solution.
(§4) After another 6 hours, the above lipofection solution was newly prepared, added again to the plate seeded with human mesenchymal stem cells or human myoblasts, and cultured in a CO2 incubator at 37° C. for about 1 day (18 hours) (mesenchymal stem cells) or about 2 days (42 hours) (human myoblasts). These steps were repeated so that the introduction of genes was performed a total of 4 times.
(§5) Twenty-four hours after the final introduction of genes, the cells were detached with a cell detachment solution, centrifuged at 600×g for 5 minutes using a centrifuge, to collect the cells. The collected cells were counted using a hemocytometer.

Test [2] concerns human myoblasts. The description is as above. As to conditions: JSH-23 1 μM, 5 pg/cell. The protocol:
as §1, §2, §3, §4, §5

Test [3] has as its system human mesenchymal stem cells. The test is described as follows: Introduction of GFP viral vector (polybrene method), yield of GFP-positive cells. Conditions: JSH-23 1 μM; GFP viral vector MOI 10, polybrene 5 μg/mL. On the procedure: (§6) Human mesenchymal stem cells were seeded in a 6-well plate to be about 2,000 cells/cm^2. Human myoblasts were seeded in another 6-well plate to be about 2,000 cells/cm^2. As a culture solution, a basal medium for each cell supplemented with JSH-23 was used. JSH-23 was added at 1 μM to the culture solution used for human mesenchymal stem cells, and at 0.1 μM to the culture solution used for human myoblasts. As a control, a basal medium, i.e., αMEM (+10% serum) for human mesenchymal stem cells and MCDB131 (+10% serum) for human myoblasts, to which 0.1% (v/v) DMSO instead of JSH-23 was added was used as a culture solution.
A mixed solution was prepared by mixing GFP viral vector and a polybrene solution. The amount of GFP viral vector was prepared to be MOI of 10, and the amount of polybrene was prepared to be 5 μg/mL. […]
Four days after the addition of the virus-free culture solution, the cells were detached with a cell detachment solution and centrifuged at 600×g for 5 minutes using a centrifuge, to collect the cells. The collected cells were counted using a hemocytometer. Furthermore, the GFP-positive percentage of the collected cells was measured using a flow cytometer. The yield of the number of GFP-positive cells was calculated from the number of cells counted and the GFP-positive percentage.

Test [4] relates to human myoblasts. Described as above. As to conditions: JSH-23 0.1 μM; GFP viral vector MOI 10, polybrene 5 μg/mL. The protocol:
as §6
A mixed solution was prepared by mixing GFP viral vector and a polybrene solution. […]
Next, the above mixed solution was added to the plate seeded with human mesenchymal stem cells or human myoblasts, and cultured in a CO2 incubator at 37° C. for 24 hours.
Four days after the addition of the virus-free culture solution, the cells were detached with a cell detachment solution and centrifuged at 600×g for 5 minutes using a centrifuge, to collect the cells. The collected cells were counted using a hemocytometer. Furthermore, the GFP-positive percentage of the collected cells was measured using a flow cytometer. The yield of the number of GFP-positive cells was calculated from the number of cells counted and the GFP-positive percentage. […]

For test [5], the system named is human mesenchymal stem cells. The test is described as follows: Introduction of TERT plasmid by lipofection, number of viable cells. Conditions: JSH-23 1 μM; TERT plasmid DNA 10 pg/cell. The protocol: Human mesenchymal stem cells were seeded in a 6-well plate to be about 10,000 cells/cm^2. As a culture solution, αMEM (+10% serum) supplemented with 1 μM of JSH-23 was used. As a control, αMEM (+10% serum) supplemented with 0.1% (v/v) DMSO instead of JSH-23 was used as a culture solution.
A lipofection solution was prepared by adding Lipofectamine RNAiMAX and TERT plasmid DNA to OptiMEM. The amount of plasmid DNA was prepared to be 10 pg/cell.
Next, the lipofection solution was added to the plate seeded with human mesenchymal stem cells, and cultured in a CO2 incubator at 37° C. for 18 hours. After culturing, all the culture solution comprising the lipofection solution was removed and replaced with a new culture solution having the same composition as before the addition of the lipofection solution.
After another 6 hours, the above lipofection solution was newly prepared, added again to the plate seeded with human mesenchymal stem cells, and cultured in a CO2 incubator at 37° C. for 18 hours. These steps were repeated so that the introduction of genes was performed a total of 4 times.
as §5

The mark [6] stands for this setting: TERT mRNA containing pseudouridine instead of uridine.

With `Cc1ccc(NCCCc2ccccc2)c(N)c1` [JSH-23], the “yield (number of viable cells) compared to the control (control set to 1)” value in test [1] (setting [6]) is listed as not below 1.3 times; in test [1] (TERT mRNA containing uridine) it was not below 1.5 times; in test [2] (setting [6]), not below 5 times; in test [2] (TERT mRNA containing uridine), not below 7 times. The “number of GFP-positive cells relative to control” value in test [3] and in test [4] was “increased” each time. Moreover, in test [5], the “number of viable cells compared to the control (control set to 1)” value is not below 1.4 times.
